Reference: patent US7576064B2, “Pyrazole derivative, drug composition containing the same and production intermediate therefor” (Kissei Pharmaceutical Co., Ltd., priority 2003, dated 2009)

What was measured:
[1] = molecular target: T1, human SMINT (Homo sapiens, UniProt Q2M3M2); experiment: Confirmatory test for substrate specificity of human SMINT (inhibition of α-MG uptake by natural sugars); assay type: cell-based; conditions: natural sugars added to Uptake Buffer with 1 mM α-MG; COS-7 cells transiently expressing human SMINT
T1 construct: expressed in transfected cells; host or cells: COS-7 cells (RIKEN CELL BANK RCB0539), transient lipofection
T1 sequence (Q2M3M2 1-681): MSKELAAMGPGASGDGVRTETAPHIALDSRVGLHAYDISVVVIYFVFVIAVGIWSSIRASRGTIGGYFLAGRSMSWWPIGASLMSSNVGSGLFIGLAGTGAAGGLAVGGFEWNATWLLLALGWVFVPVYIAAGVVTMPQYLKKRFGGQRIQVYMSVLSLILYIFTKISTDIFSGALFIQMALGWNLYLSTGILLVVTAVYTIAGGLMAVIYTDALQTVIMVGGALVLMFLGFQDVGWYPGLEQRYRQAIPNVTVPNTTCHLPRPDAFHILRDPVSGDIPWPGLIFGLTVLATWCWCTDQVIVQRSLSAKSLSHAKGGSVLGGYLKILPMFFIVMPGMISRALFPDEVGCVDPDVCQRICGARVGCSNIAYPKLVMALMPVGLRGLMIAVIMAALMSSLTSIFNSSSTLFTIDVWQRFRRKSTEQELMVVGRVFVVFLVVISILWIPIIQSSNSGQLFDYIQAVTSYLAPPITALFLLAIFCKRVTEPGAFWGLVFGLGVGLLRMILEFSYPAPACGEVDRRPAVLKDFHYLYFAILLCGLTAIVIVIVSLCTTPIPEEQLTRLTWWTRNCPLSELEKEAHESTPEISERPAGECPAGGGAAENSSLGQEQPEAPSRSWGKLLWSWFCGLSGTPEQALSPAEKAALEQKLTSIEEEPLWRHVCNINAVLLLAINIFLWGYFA
Excerpt: FIG. 2 is a graph showing substrate specificity of human SMINT. The vertical axis in dicates methyl-α-D-glucopyranoside (α-MG) uptake activity (%), and the horizontal axis indicates concentration (mol/L).
1) Preparation of Cells Transiently Expressing Human SMINT
Human SMINT-carrying expression plasmid SMINT/pME18S-FL (denotation of bacteria: Escherichia coli/SMINT2010324), which was deposited with Patent Microorganisms Depositary at the National Institute of Technology and Evaluation under an accession number: FERMP-18756 on Mar. 12, 2002, was transfected to COS-7 cells (RIKEN CELL BANK RCB0539) by lipofection method. LIPOFECTAMINE PLUS reagent (Invitrogen) was used as the lipofection reagent. A day before the lipofection, COS-7 cells were suspended in D-MEM medium (Invitrogen) at 6×10^5 cells per 1 mL, and 50 μL of the suspended cells was dispensed into each well of 96-well plate. The lipofection was performed by the following methods. For each well, 0.1 μg of the plasmid was diluted with 10 μL of D-MEM, added 0.5 μL of PLUS reagent, mixed gently, and kept stand for 15 minutes to prepare Plasmid Dilute Solution. For each well, 0.5 μL of LIPOFECTAMINE reagent was diluted with 10 μL of D-MEM to prepare LIPOFECTAMINE Dilute Solution. […]
To Uptake Buffer consisting of 140 mM sodium chloride, 2 mM potassium chloride, 1 mM calcium chloride, 1 mM magnesium chloride, 10 mM 2-[2-(2-hydroxyethyl)-1-piperazinyl]-ethanesulfonic acid, and 5 mM tris(hydroxymethyl)aminomethane (pH 7.4), was added methyl-α-D-glucopyranoside (α-MG) composed of its non-radiolabeled form (Sigma) and ^14C-labeled form (Amersham Biosciences) at 1 mM as the final concentration. […] To the cell lysates were added 150 μL per well of MicroScint 40 (Packard), mixed well, and the radio activity was measured in a micro scintillation counter TOPCOUNT (Packard). α-MG uptake by the cells treated with each concentration of test compounds was calculated as relative activity to control group, which is set as 100% uptake after deducting the basal uptake. […]

[2] = molecular target: T1, human SMINT; experiment: Confirmatory test for inhibitory activity on human SMINT (methyl-α-D-glucopyranoside uptake in transiently expressing COS-7 cells); assay type: cell-based; conditions: COS-7 cells transiently expressing human SMINT; 1 mM α-MG; 1 hour, 37° C.; read-out: IC50 value (concentration inhibiting α-MG uptake by 50%)
Excerpt: Human SMINT-carrying expression plasmid SMINT/pME18S-FL (denotation of bacteria: Escherichia coli/SMINT2010324), which was deposited with Patent Microorganisms Depositary at the National Institute of Technology and Evaluation under an accession number: FERMP-18756 on Mar. 12, 2002, was transfected to COS-7 cells (RIKEN CELL BANK RCB0539) by lipofection method. LIPOFECTAMINE PLUS reagent (Invitrogen) was used as the lipofection reagent. A day before the lipofection, COS-7 cells were suspended in D-MEM medium (Invitrogen) at 6×10^5 cells per 1 mL, and 50 μL of the suspended cells was dispensed into each well of 96-well plate. The lipofection was performed by the following methods. For each well, 0.1 μg of the plasmid was diluted with 10 μL of D-MEM, added 0.5 μL of PLUS reagent, mixed gently, and kept stand for 15 minutes to prepare Plasmid Dilute Solution. For each well, 0.5 μL of LIPOFECTAMINE reagent was diluted with 10 μL of D-MEM to prepare LIPOFECTAMINE Dilute Solution. The Plasmid Dilute Solution was mixed with an equal volume of the LIPOFECTAMINE Dilute Solution, kept stand for 15 minutes. After that, 20 μL of the mixture was added to each well of cell culture medium, and the cells were cultured for 5 hours at 37° C. under 5% CO2. Then 100 μL of D-MEM containing 16.7% fetal bovine serum (Sanko Jun-yaku) was added to each well. […]

O=C[C@H](O)[C@@H](O)[C@@H](O)[C@H](O)CO [galactose]
recognition as substrate by SMINT (FIG. 2) [1]: not

OC[C@H]1OC[C@H](O)[C@@H](O)[C@@H]1O [1,5-anhydroglucitol]
recognition as substrate by SMINT (FIG. 2) [1]: recognizes

O=C(CO)[C@@H](O)[C@H](O)[C@H](O)CO [fructose]
recognition as substrate by SMINT (FIG. 2) [1]: recognizes

COc1ccc(Cc2c(O[C@@H]3O[C@H](CO)[C@@H](O)[C@H](O)[C@H]3O)nn(C(C)C)c2Oc2ccccc2)cc1 [Example 1, 1-Isopropyl-4-(4-methoxybenzyl)-5-phenoxy-3-(β-D-glucopyranosyloxy)-1H-pyrazole]
IC50 [2]: 700 nM

COc1ccc(Cc2c(O[C@@H]3O[C@H](CO)[C@@H](O)[C@H](O)[C@H]3O)nn(C(C)C)c2-n2cccn2)c(OC)c1 [Example 4, 1-Isopropyl-4-(2,4-dimethoxyphenylmethyl)-5-(1H-pyrazol-1-yl)-3-(β-D-glucopyranosyloxy)-1H-pyrazole]
IC50 [2]: 890 nM
